Source: patent US7507749B2, “Antitumor agents” (priority 2001, dated 2009)
Values joined by “and” are separate entries in the source; they are usually repeats but may differ in a detail not shown here. Equal values may be shown once. Read-outs that look alike come from different tables or passages of the source. Each block holds one molecule with its values, some of them ahead of it.

Assays:
[1] = tested on: mammary adenocarcinoma-16/C/Adr; test: Test C: evaluation against early stage mammary adenocarcinoma-16/C/Adr; format: in vivo
Excerpt: Early stage mammary adenocarcinoma-16/C/Adr is a p-glycoprotein negative multidrug resistant tumor. C3H female mice were obtained from NCI-Kingston-CRL (D.O.B. Apr. 3, 2000; D.O.A. May 16, 2000). […] The control animals (Cage #1) received no treatment.

colon carcinoma 26 = tested on: colon carcinoma 26
Experimental: In this trial the R-enantiomers of XK-469, compound 22c, and compound 22b were compared against advanced staged colon carcinoma 26 in female Balb/c mice. […] Cage #2 was 22b at 400 mg/kg and Cage #4 was 22c at 400 mg/kg.
The XK469-R, 22b, and 22c compound doses were all prepared the same, using 3% ethanol, 1% POE-80, and 0.5% sodium bicarbonate. The injection volume was 0.2 mu/mouse IV. […] The mice were Balb/c female mice: DOB Feb. 12, 2001; DOA Mar. 27, 2001; DOT Sep. 8, 2001, with an average body weight of 24.7 grams at the start of Rx administration. The tumor was Colon Carcinoma-26 passage 141; date of implant Sep. 8, 2001, and implanted at 30 to 60 mg fragments bilaterally SC. All tumors were 63 to 171 mg on day 6, the day of first Rx.

B16 melanoma [2] = tested on: B16 melanoma
Excerpt: (§1) Tumors were maintained in the mouse strain of origin C57B1/6 (for Panc03, B16), Balb/c (for Colon 26) and C3H (for the mammary tumors). Tumors were transplanted into the appropriate F1 hybrid (BDF1=C57B1/6 female X DBA/2 male) or the strain of origin for the chemotherapy trials. Individual mouse body weights for each experiment were within 5 grams, and all mice were over 17 grams at the start of therapy. The mice were supplied food and water ad libitum.
(§2) Animals were pooled, implanted subcutaneously with 30 to 60 mg tumor fragments by a 12 gauge trocar on day 0, and again pooled before unselective distribution to the various treatment and control groups. For early stage treatment, chemotherapy was started within 1 to 3 days after tumor implantation while the number of cells was relatively small (10^7 to 10^8 cells). For upstaged or advanced staged trials, the tumors were allowed to grow for five or more days before treatment was started. Tumors were measured with a caliper twice weekly. […] Tumor weights are estimated from two-dimensional measurements:
(§3) Tumor weight (in mg)=(a×b^2)/2, where a and b are the tumor length and width in (mm), respectively.
(§4) The following quantitative endpoints were used to assess antitumor activity: • a) Tumor growth delay (T-C value), where T is the median time (in days) required for the treatment group tumors to reach a predetermined size (e.g., 1000 mg), and C is the median time (in days) for the control group tumors to reach the same size. Tumor-free survivors are excluded from these calculations (cures are tabulated separately). This value is an important criterion of antitumor effectiveness because it allows the quantification of tumor cell kill. • b) Calculation of tumor cell kill for subcutaneously (SC) growing tumors, the log10 cell kill was calculated from the following formula:
(§5) The conversion of the T-C values to log10 cell kill is possible because the Td of tumors regrowing post treatment (Rx) approximates the Td values of the tumors in untreated control mice.
It should be noted that an activity rating of +++ to ++++ is needed to effect partial regression (PR) or complete regression (CR) of 100 to 300 mg size masses of most transplanted solid tumors of mice. Thus, an activity rating of + or ++ would not be scored as active by usual clinical criteria. A PR is a reduction in tumor mass to less than 50% of pretreatment size. A CR is a reduction in tumor mass to below palpable size (i.e., reduction to zero detectable mass).
(§6) The T/C value in percent is an indication of antitumor effectiveness: A T/C=0% means no tumor growth. […] A T/C value <10% is considered to indicate highly significant antitumor activity, and is the level used by NCI to justify a clinical trial if toxicity, formulation, and certain other requirements are met (termed DN-2 level activity).
The mice were divided into a control group and three experimental groups. The control group (Cage #1) received no treatment.
A −20% body weight loss is considered excessively toxic by N.C.I. standards.

[3] = tested on: pancreatic ductal adenocarcinoma 03
Excerpt: Pancreatic ductal adenocarcinoma-03, B16-melanoma, mammary adenocarcinoma-16/C/Adr, mammary adenocarcinoma-17/Adr, colon adenocarcinoma-26, and mammary adenocarcinoma-16/C were used in the studies.
as §1, §2, §3, §4, §5
In selected cases, both for historic in vivo evaluation data as well as data presented here, it is of value to compare log kill numbers from trials of markedly different testing schedules. […] It should be noted that an activity rating of +++ to ++++ is needed to effect partial regression (PR) or complete regression (CR) of 100 to 300 mg size masses of most transplanted solid tumors of mice. Thus, an activity rating of + or ++ would not be scored as active by usual clinical criteria. A PR is a reduction in tumor mass to less than 50% of pretreatment size. A CR is a reduction in tumor mass to below palpable size (i.e., reduction to zero detectable mass).
as §6
Female BDFl mice (obtained from NCI-Raleigh) (date of birth (hereinafter D.O.B.) Mar. 27, 2000; date of arrival (hereinafter D.O.A.) Apr. 9, 2000) were implanted (tumor implant date (hereinafter D.O.T.) Mar. 17, 2000) with pancreatic ductal adenocarcinoma 03 tumor, divided into treatment and control groups.

[4] = tested on: mammary adenocarcinoma-16/C; test: Test F: R-enantiomers of 22b and 22c against early staged mammary adenocarcinoma-16/C; format: in vivo, C3H female mice; settings: Cage 11, IV 7.5 mg/kg/inj days 1,5, total 15 mg/kg
Experimental: C3H female mice were obtained from N.C.I. (D.O.B. was […]; D.O.A. was Jan. 27, 2001). The mice weighed an average of 19.2 gm. Mice were implanted SC with mammary adenocarcinoma-16/C passage-170, a fast growing, highly invasive, highly metastatic tumor (D.O.T. was Mar. 8, 2001; Td was 1.2 days).
The R-enantiomers of both Compound 22c and Compound 22b were each suspended in 3% ethanol, 1% POE-80, 0.5% sodium bicarbonate (by volume) to effect solution, P.B.S. was then added and the pH adjusted to 7 with HCl. Adriamycin (ADRIA; lot number 20338c) was suspended in dH2O to effect solution and the pH was adjusted to 6.0. Mice were administered 0.2 ml per IV injection.

[5] = tested on: pancreatic ductal adenocarcinoma 03; settings: historic; cited from earlier work
[6] = tested on: pancreatic ductal adenocarcinoma-03; format: in vivo; settings: Cg 8 in table (Cage 13 in text); IV 7.5 mg/kg/inj days 6,14; total 15 mg/kg
Experimental: BDF1 female mice were obtained from N.C.I., CRL-Ral (D.O.B. was Feb. 26, 2001; D.O.A. was Mar. 10, 2001). The mice weighed an average of 22.5 gm. Mice were implanted SC with pancreatic ductal adenocarcinoma-03 passage 143. (D.O.T. was May 29, 2001; Td was 2.3 days).
The R-enantiomer of compound 22c was suspended in 3% ethanol, 1% POE-80, 0.25% sodium bicarbonate (by volume) to effect solution. dH2O was then added, and the pH adjusted to 7 with HCl. […] The R-enantiomer of compound 22b was suspended in 3% ethanol, 1% POE-80, 0.5% sodium-bicarbonate (by volume) to effect solution. Then, dH2O was added, and the pH adjusted to 7.5 with HCl. […] Adriamycin (source ADRIA; lot 2033BC) was suspended in dH2O to effect solution, and the pH was 6.0.
Treatment began six days following implant, at which time the tumors were palpable size (126 mg median). The duration of treatment was prolonged (18 days) in order to obtain a clear separation in efficacy between the compounds.

B16 melanoma [7] = settings: historic, B16 melanoma implanted subcutaneously (SC); cited from earlier work
[8] = Cage 2, IV 42 mg/kg twice daily days 1-3 and 11-13, total 504 mg/kg
[9] = Cage 3, IV 27 mg/kg twice daily days 1-3 and 11-13, total 324 mg/kg
[10] = Cg 3, IV 50 mg/kg/inj days 6,8,10,13,15, total 250 mg/kg
[11] = Cage 2, IV 40 mg/kg/inj days 1-4, 8 inj, total 320 mg/kg
[12] = Cage 3, IV 50 mg/kg/inj daily days 1-5, total 250 mg/kg
[13] = Cage 4, IV 30 mg/kg/inj daily days 1-6, total 180 mg/kg
[14] = Cage 7, IV daily days 3-9, 7 inj, total 336 mg/kg

melting point: 164 to 166 °C
SMILES: COc1ccc2ccc(Oc3ccc(OC(C)C(=O)O)cc3)nc2c1 (stereo not drawn)

SMILES: CC(Oc1ccc(Oc2ccc3ccc(Cl)cc3n2)cc1)C(=O)O (racemic) [Compound 22b, 2-[4-(7-chloroquinolin-2-yloxy)phenoxy]propanoic acid]
% Body Wt Loss at Nadir [1, 8]: −15%
% T/C mass [1, 8]: 0%
Activity Rating [1, 8]: +++ (2.0-2.8)
Day of Nadir [1, 8]: 7 days
Day of full recovery of body weight [1, 8]: 12 days
Drug Deaths [1, 8]: 0/6
Growth Delay [1, 8]: 8.0 days
Log Kill [1, 8]: 2.0
Median Tumor Mass on Day 11 (Range) [1, 8]: 0 (0-308) mg
Tumor Free day-18 [1, 8]: 0/6
Neuromuscular toxicity ([1]; Cage 2, IV 42 mg/kg twice daily, lasting about ten minutes post injection): modest neuromuscular gait disturbance
Neuromuscular toxicity ([1]; Cage 3, IV 27 mg/kg twice daily): insignificant gait disturbance
% Body Wt Loss at Nadir [1, 9]: −1.1%
% T/C mass [1, 9]: 53%
Activity Rating [1, 9]: inactive
Day of Nadir [1, 9]: 7 days
Day of full recovery of body weight [1, 9]: 8 days
Drug Deaths [1, 9]: 0/6
Growth Delay [1, 9]: 2.25 days
Log Kill [1, 9]: 0.6
Median Tumor Mass on Day 11 (Range) [1, 9]: 741 (516-1199) mg
Tumor Free day-18 [1, 9]: 0/6
Toxicity of dose group (colon carcinoma 26; Cage 2, 400 mg/kg, omitted from Table 8): toxic
Activity Rating (colon carcinoma 26; [10]): ++ (1.3-1.9)
CR's (colon carcinoma 26; [10]): 1/6
Log Kill (colon carcinoma 26; [10]): 1.4
% T/C mass (B16 melanoma [2]; [11]): 0%
Cause of death (B16 melanoma [2]; [11]): marrow toxicity
Drug Deaths (B16 melanoma [2]; [11]): 1/5
Growth Delay (B16 melanoma [2]; [11]): 12.5 days
Log Kill (B16 melanoma [2]; [11]): 3.8
Median Tumor Mass on Day 9 (Range) (B16 melanoma [2]; [11]): 0 (all zeros) mg
Tumor Free day-24 (B16 melanoma [2]; [11]): 0.5
Activity Rating (B16 melanoma [2]; Cage 2, IV 40 mg/kg/inj days 1-4, 8 inj, total 320 mg/kg, listed as 22b (racemic)): toxic
% T/C mass (B16 melanoma [2]; [12]): 0%
Activity Rating (B16 melanoma [2]; [12]): +++ (2.0-2.8)
Drug Deaths (B16 melanoma [2]; [12]): 0/5
Growth Delay (B16 melanoma [2]; [12]): 8.5 days
Log Kill (B16 melanoma [2]; [12]): 2.6
Median Tumor Mass on Day 9 (Range) (B16 melanoma [2]; [12]): 0 (all zeros) mg
Tumor Free day-24 (B16 melanoma [2]; [12]): 0/5
% T/C mass (B16 melanoma [2]; [13]): 15.6%
Activity Rating (B16 melanoma [2]; [13]): ++ (1.3-1.9)
Drug Deaths (B16 melanoma [2]; [13]): 0/5
Growth Delay (B16 melanoma [2]; [13]): 6.0 days
Log Kill (B16 melanoma [2]; [13]): 1.8
Median Tumor Mass on Day 9 (Range) (B16 melanoma [2]; [13]): 221 (63-334) mg
Tumor Free day-24 (B16 melanoma [2]; [13]): 0/5
Day of Nadir (B16 melanoma [2]; mouse, in vivo): 8 days
Day of full recovery of body weight (B16 melanoma [2]; mouse, in vivo): 11 days and 9 days
Duration of neuromuscular toxicity post injection (B16 melanoma [2]; mouse, in vivo): over 20 minutes
Neuromuscular toxicity (slowing of nerve conduction) (B16 melanoma [2]; mouse, in vivo): substantial post injection neuromuscular toxicity and mild
% T/C mass [3, 14]: 0%
Activity Rating [3, 14]: +++ (2.0-2.8)
Drug Deaths [3, 14]: 0/5
Growth Delay In Days [3, 14]: 17.5 days
Log Kill [3, 14]: 2.6
Median Tumor Mass on Day 14 (Range) [3, 14]: 0 (0-126) mg
Tumor Free day-37 [3, 14]: 0/5
% Body Wt Loss at Nadir ([3]; mouse, in vivo): −8.9%
Day of Nadir ([3]; mouse, in vivo): 11 days

SMILES: COc1cccc2c1C(=O)c1c(O)c3c(c(O)c1C2=O)C[C@@](O)(C(=O)CO)C[C@@H]3O[C@H]1C[C@H](N)[C@H](O)[C@H](C)O1 [Adriamycin, reference compound]
% Body Wt Loss at Nadir [4]: 0%
% T/C mass [4]: 0%
Day of Nadir [4]: 8 days
Drug Deaths [4]: 1/5
Growth Delay [4]: 12.0 days
Log Kill [4]: 3.6
Median Tumor Mass on Day 10 (Range) [4]: 0 mg
Median time for tumors to 1000 mg (range) [4]: 21.5 (17-27.5) days
Tumor Free day-155 [4]: 0/5
% Body Wt Loss at Nadir ([4]; listed as adriamycin): no body weight loss
% T/C mass ([4]; listed as adriamycin): 0%
Activity Rating ([4]; listed as adriamycin): ++++ (>2.8)
Drug Deaths ([4]; listed as adriamycin): one delayed drug-death
activity rating (sensitivity of the tumor to standard agents) [5]: +++ (2.0-2.8)
% Body Wt change between day 6 and day 24 [6]: −5.4%
% T/C mass [6]: 17.0%
Activity Rating [6]: +++ (2.0-2.8)
CR's [6]: 1/5
Drug Deaths [6]: 0/5
Growth Delay [6]: 17.5 days
Log Kill [6]: 2.3
Median Tumor Mass on Day 24 (Range) [6]: 383 mg
Median time for tumors to 1,000 mg (range) [6]: 34 days
PR's [6]: 1/5
Tumor Free day-157 [6]: 0/5
activity rating (responsiveness of the tumor to standard agents) (B16 melanoma [7]): +or +/−

SMILES: O=NN(CCCl)C(=O)NCCCl [BCNU]
activity rating (responsiveness of the tumor to standard agents) (B16 melanoma [7]): ++++ (>2.8)

SMILES: O=c1[nH]cc(F)c(=O)[nH]1 [Compound 5-FU, 5-FU]
activity rating (sensitivity of the tumor to standard agents) [5]: + (0.7-1.2)

SMILES: CC[C@@]1(O)C(=O)OCc2c1cc1n(c2=O)Cc2cc3ccccc3nc2-1 [camptothecin]
activity rating (responsiveness of the tumor to standard agents) (B16 melanoma [7]): +or +/−

SMILES: CC(=O)O[C@H]1C(=O)[C@@]2(C)[C@H]([C@H](OC(=O)c3ccccc3)[C@]3(O)C[C@H](OC(=O)[C@H](O)[C@@H](NC(=O)c4ccccc4)c4ccccc4)C(C)=C1C3(C)C)[C@]1(OC(C)=O)CO[C@@H]1C[C@@H]2O [taxol]
activity rating (sensitivity of the tumor to standard agents) [5]: ++++ (>2.8)
activity rating (responsiveness of the tumor to standard agents) (B16 melanoma [7]): +or +/−
